Structures can show the parent of a compound that is named as a salt.
System: nerve-ligation induced pain (rat model of spinal nerve ligation, SNL)
Test: Neuropathic pain model (Chung model): rat spinal nerve ligation, mechanical allodynia by Von Frey hairs
Assay type: in vivo
Details: for reversed pain in the Chung model: 1 mg/kg, time not given
Experimental: [drawing 23] and all racemic mixtures of the two optical isomers are also included. Analgesic Activity in the Neuropathic Pain Model (the Chung Model)
Several of the compounds disclosed herein were tested in the rat model of spinal nerve ligation (SNL) which involves a traumatic partial nerve injury, involving tight ligation of the L5 and L6 spinal nerves (Kim and Chung, 1992). Pain, including mechanical allodynia and thermal hyperalgesia, persists in the absence of ongoing tissue injury for more than 2 months following the surgery. The ability of the drug to alleviate the mechanical allodynia was assessed using a series of Von Frey hairs applied to the mid-plantar area of the ipsilateral hind paw before and after drug administration. The paw withdrawal threshold was determined using a standard up-down testing method (Dixon, 1980) and expressed relative to the paw withdrawal threshold in uninjured rats.
• Kim S H, Chung J M. An experimental model for peripheral neuropathy produced by segmental spinal nerve ligation in the rat, Pain 1992; 50 (3): 355-63. • Dixon W J. Efficient analysis of experimental observations. Annu Rev Pharmacol Toxicol 1980; 20: 441-62.

SMILES	reversed pain in the Chung model [%]	Percent pain reversal at time in min (dose 0.3 mg/kg, 15 min) [%]	Percent pain reversal at time in min (dose 0.3 mg/kg, 30 min) [%]	Percent pain reversal at time in min (dose 0.3 mg/kg, 60 min) [%]	Percent pain reversal at time in min (dose 1 mg/kg, 15 min) [%]	Percent pain reversal at time in min (dose 1 mg/kg, 30 min) [%]	Percent pain reversal at time in min (dose 1 mg/kg, 60 min) [%]	Percent pain reversal at time in min (dose 0.1 mg/kg, 15 min) [%]	Percent pain reversal at time in min (dose 0.1 mg/kg, 30 min) [%]	Percent pain reversal at time in min (dose 0.1 mg/kg, 60 min) [%]
N[C@@H](C(=O)N1CCCC1)[C@@H](O)c1ccc(F)cc1 (racemic) [Compound 1, (±)-threo-2-Amino-3-(4-fluorophenyl)-3-hydroxy-1-(pyrrolidin-1-yl)propan-1-one hydrochloride]	64	17	29	52	28	52	64	–	–	–
N[C@@H](C(=O)N1CCCC1)[C@@H](O)c1ccc(I)cc1 (racemic) [reference compound]	–	4.3	5.8	7.3	–	–	–	–	–	–
N[C@@H](C(=O)N1CCCC1)[C@@H](O)c1ccc(Cl)cc1 (racemic) [reference compound]	–	4.8	7.5	8.6	–	–	–	–	–	–
N[C@@H](C(=O)N1CCCC1)[C@@H](O)c1ccc(F)cc1 [Compound 3, (−)-threo-2-Amino-3-(4-fluorophenyl)-3-hydroxy-1-(pyrrolidin-1-yl)propan-1-one hydrochloride]	86	26.7	53.6	75.5	57.2	73.5	86.2	1.2	20.2	43.2
